Results reported in ChEMBL document CHEMBL1201862, “PubChem BioAssay data set” (2004).
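1) Cells in 96-well plates. 2) Compound, 48 h, 5 concentrations. 3) Linear interpolation between surrounding doses. 4) Unreached endpoint = highest concentration. GI50 marks 50% less growth.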 Activity calls are given as the source filed them. Cut-off read from the data, not from the text of the source: active = GI50 up to about 1.1 µM and inactive = higher.

Experiments:
Assay in all cases: NCI tumour cell line growth inhibition, 48 h
BT-549 = test system: BT-549
DU-145 = test system: DU-145
HL-60 = test system: HL-60
IGROV-1 = test system: IGROV-1
K562 = test system: K562
KM12 = test system: KM12
M14 = test system: M14
MCF7 = test system: MCF7
Malme-3M = test system: Malme-3M
NCI-H460 = test system: NCI-H460
OVCAR-4 = test system: OVCAR-4
OVCAR-5 = test system: OVCAR-5
RXF 393 = test system: RXF 393
SF-295 = test system: SF-295
SK-MEL-28 = test system: SK-MEL-28
SNB-75 = test system: SNB-75
SR = test system: SR
U-251 = test system: U-251
UACC-62 = test system: UACC-62
UO-31 = test system: UO-31

Measured: GI50

OCCSCc1ccccc1
inactive: BT-549 > 100 µM | DU-145 > 100 µM | HL-60 > 100 µM | IGROV-1 > 100 µM | K562 > 100 µM | KM12 > 100 µM | M14 > 100 µM | MCF7 > 100 µM | Malme-3M > 100 µM | NCI-H460 > 100 µM | OVCAR-4 > 100 µM | OVCAR-5 > 100 µM | RXF 393 > 100 µM | SF-295 > 100 µM | SK-MEL-28 > 100 µM | SNB-75 > 100 µM | SR > 100 µM | U-251 > 100 µM | UACC-62 > 100 µM | UO-31 > 100 µM

CCCCCCCCCCCCCCCCCCNc1ccn(C2OC(CO)C(OP(=O)(O)OCC(COP(=O)(O)OCC3OC(n4cc(F)c(NCCCCCCCCCCCCCCCCCC)nc4=O)CC3O)OC(=O)CCCCCCCCCCCCCCC)C2O)c(=O)n1 (stereo not given)
inactive: BT-549 > 100 µM | DU-145 > 100 µM | HL-60 67.1 µM | IGROV-1 > 100 µM | K562 3.01 µM | KM12 > 100 µM | M14 > 100 µM | MCF7 > 100 µM | Malme-3M > 100 µM | NCI-H460 > 100 µM | OVCAR-4 > 100 µM | OVCAR-5 > 100 µM | RXF 393 > 100 µM | SF-295 > 100 µM | SK-MEL-28 > 100 µM | SNB-75 > 100 µM | SR > 100 µM | U-251 > 100 µM | UACC-62 > 100 µM | UO-31 > 100 µM

CN(C)CCCn1cnc2cc(Cl)c(Cl)cc21
inactive: BT-549 66.7 µM | DU-145 > 100 µM | HL-60 > 100 µM | IGROV-1 56.4 µM | K562 67.3 µM | KM12 > 100 µM | M14 16.6 µM | MCF7 > 100 µM | Malme-3M > 100 µM | NCI-H460 91.8 µM | OVCAR-4 > 100 µM | OVCAR-5 > 100 µM | RXF 393 61.2 µM | SF-295 > 100 µM | SK-MEL-28 17.9 µM | SNB-75 33.1 µM | SR 93.5 µM | U-251 > 100 µM | UACC-62 27.7 µM | UO-31 70 µM

O=c1[nH]c2nc[nH]c2c(=O)n1C1CCCCC1
inactive: BT-549 > 100 µM | DU-145 > 100 µM | HL-60 6.01 µM | IGROV-1 > 100 µM | K562 > 100 µM | KM12 > 100 µM | M14 > 100 µM | MCF7 > 100 µM | Malme-3M > 100 µM | NCI-H460 > 100 µM | OVCAR-4 > 100 µM | OVCAR-5 > 100 µM | RXF 393 > 100 µM | SF-295 > 100 µM | SK-MEL-28 > 100 µM | SNB-75 > 100 µM | SR > 100 µM | U-251 > 100 µM | UACC-62 > 100 µM | UO-31 > 100 µM
